Consider ten compounds from patent US20220064196A1, “EGFR Inhibitors, Compositions and Methods Thereof” (Betta Pharmaceuticals Co., Ltd., priority 2019, published 2022).

A short description of data set [1]: Pharmacokinetic assay, oral administration. The data set is classed as in vivo. Conditions: rat, male SD rats, p.o. 5 mg/kg, plasma, formulation differs per row. The method, then:
Test 5 Pharmacokinetic Assay
Male SD rats, oral administration (intragastric administration), 3 in each group. Animals administered by gavage were fasted overnight before the experiment, and the fasting time was from at least 12 hours before administration to 4 hours after administration. The blood was collected using the orbital vein. Time of blood collection by oral administration: 15 min, 30 min, 1 h, 2 h, 4 h, 7 h, 24 h. The blood collection volume was 300 uL, and after anticoagulation with 2.0% EDTA, the blood was centrifuged at 4000 rpm for 5 min, and the blood plasma was taken for about 100 uL, and placed in −20° C. for examination. The plasma sample was analyzed using liquid chromatography tandem mass spectrometry (LC-MS/MS). Plasma concentration-time data for individual animals were analyzed using WinNonlin (V4.1, Pharsight) software with a non-compartmental model and the pharmacokinetic parameters of the test compounds were calculated.

For the next data set, the target named is Ba/F3-L858R/T790M/C797S (Homo sapiens, UniProt P00533, T790M/C797S/L858R, cells depend on it). Kind of data set: Ba/F3-L858R/T790M/C797S cells proliferation assay (CellTiter Glo). The data set is classed as cell-based. Conditions: cell proliferation, 72 h, read-out: Ba/F3-L858R/T790M/C797S IC50. The method, then: (§1) a) The medium was preheated in a 37°0 C. water bath in advance.
(§2) b) Remove the cryogenic vials from the liquid nitrogen tank, quickly put it into a 37° C. water bath, and completely melt it in 1 min.
(§3) c) Transfer the cell suspension to a 15 mL centrifuge tube containing 8 mL medium, centrifuge 1000 rpm, 5 min.
(§4) d) Discard the supernatant, resuspend the cells in 1 mL medium, and transfer to a 75 cm^2 flask containing 15 mL medium, culture the cells in an incubator at 37° C., 5% CO2.
(§5) a) The medium was preheated in a 37° C. water bath in advance.
(§6) b) Collect cell to a 15 mL centrifuged tube, centrifuge at 1000 rpm for 5 min. Discard the supernatant, count, and make the cell density at 1×10^4 cells/mL, then place it in a 37° C., 5% CO2 incubator.
(§7) a) The test compound (20 mM stock solution) was diluted to 200uM with 100% DMSO as starting concentration then 3-fold serial diluted with “9+0” concentrations. in a 96-well dilution plate (Cat # P-05525, Labcyte);
(§8) b) The above compound solution was diluted 1:20 times with culture medium to prepare a 10 fold working solution;
(§9) a) Take cells in log phase growth, centrifuge at 1000 rpm for 5 min, then resuspend the cells with culture medium, then count cells;
(§10) b) Cells were seeded to 96-well cell culture plate with density at 2000 cells/well;
(§11) a) Compounds prepared at step 2 were added to cell plate with 15 μL per well, the final concentrations were 1000,333, 111.1, 37,12.3, 4.1, 1.4, 0.5, 0.2 and 0 nM, and the final concentration of DMSO was 0.5%. The blank control well was a culture medium (0.5% DMSO);
(§12) b) The cells were incubated for an additional 72 h in the incubator.
(§13) a) Remove the 96-well cell culture plate and add 50 μl of CTG reagent (CellTiter Glo kit, promega, Cat # G7573).
(§14) b) Plate was shaked for 2 min and then let it cool for 10 min at room temperature.
(§15) c) The Luminescence signal value was read using a PerkinElmer reader. Experimental data analysis
(§16) Data were analyzed using GraphPad Prism 6.0 software to obtain a fitted curve of compound activity.
(§17) Fit the Compound IC50 from non-linear regression equation:
(§18) Y=Bottom+(Top-Bottom)/(1+10((LogIC50-X)×Hill Slope));
(§19) X: The log of the concentration of the compound; Y: Luminescence value.
(§20) The cells proliferation assay results are expressed with IC50, shown as Table 2.
For orientation: Cellular ATP, detected with luciferase, serves as a proxy for viable cell number.

The target in the next data set is EGFR L858R/T790M/C797S (Homo sapiens, UniProt P00533, C797S/L858R/T790M). As to the kind of experiment: Kinase assay (mobility shift), EGFR L858R/T790M/C797S. The data set is classed as biochemical. To be noted: numeric values. The procedure: [Worded in the source for another variant; this variant is reported under the same test.] Test 1 Kinase Assay for EGFR Del19/T790M/C797S and EGFR Wildtype
Enzyme reaction protocol are as follows:
1. Preparing 1* Kinase buffer as followed.
2. Preparing Compound Concentration Gradient: Compounds were tested at a concentration of 300 nM, diluted to 100-fold final concentration in 100% DMSO solution in 96-well plates, and compounds were diluted 3 times with Precision, 10 concentrations. Each concentration of the compound was then further diluted to a 5-fold final concentration of the intermediate dilution solution using 1* Kinase buffer.
3.5 μL of each of the prepared intermediate dilution compounds was separately added to the compound wells of the 384-well plate, and each concentration was tested for duplicate wells; 5 μL of 5% DMSO was added to the negative control wells and the positive control wells, respectively.
4. 2.5-fold final concentration of the kinase solution was prepared using 1*Kinase buffer.
5. Add 10 μL of 2.5-fold final concentration of kinase solution to the compound well and positive control well; add 10 μL of 1*Kinase buffer to the negative control well.
6. Centrifuge at 1000 rpm for 30 seconds, shake the reaction plate and incubate for 10 minutes at room temperature.
7. A mixed solution of 2.5 times the final concentration of ATP and Kinase substrate (5-FAM-EEPLYWSFPAKKK-CONH2) was prepared using 1*Kinase buffer.
8. 10 μL of a 2.5-fold final concentration of a mixed solution of ATP and a substrate was added to initiate the reaction.
9. Centrifuge the 384-well plate at 1000 rpm for 30 seconds, mix by shaking, and incubate at room temperature for the corresponding time.
10. Add 30 μL of the stop solution to stop the kinase reaction, centrifuge at 1000 rpm for 30 seconds, and mix by shaking.
11. Read the conversion rate with Caliper EZ Reader.
Convert conversion values to inhibition values:
Percent inhibition 32 (max-conversion)/(max-min)*100.
“max” stands for the mean value of the positive control well ratio; “min” stands for the mean value of the negative control well.
Fit the data in log(inhibitor) vs. response Variable slope of GraphPad Prism 5 to obtain IC50 values.
Equation used is: Y=Bottom+(Top-Bottom)/(1+(IC50/X)^HillSlope)

The target in the next data set is Ba/F3-Del19/T790M/C797S (Homo sapiens, UniProt P00533, T790M/C797S, cells depend on it, form not given). Kind of data set: Ba/F3-Del19/T790M/C797S cells proliferation assay (CellTiter Glo). It is filed as cell-based. To be noted: cell proliferation, 72 h, read-out: Ba/F3-Del19/T790M/C797S IC50. The method, then: as §1, §2, §3, §4, §5, §6, §7, §8, §9, §10, §11, §12, §13, §14, §15, §16, §17, §18, §19, §20

A further data set deals with A431 (WT). As to the kind of experiment: A431 cells proliferation assay (CellTiter Glo). To be noted: Homo sapiens, A-431; cell proliferation, 72 h. It is filed as cell-based. The procedure:
Test 4 A431 Cells Proliferation Assay
DMEM and 10% FBS and 1% PS.
as §5, §2, §3, §4, §6
a) The test compound (20 mM stock solution) was diluted to 2 mM with 100% DMSO as starting concentration then 3-fold serial diluted with “9+0” concentrations. in a 96-well dilution plate (Cat # P-05525, Labcyte);
b) The above compound solution was diluted 1:40 times with culture medium to prepare a 5 fold working solution;
as §9
b) Cells were seeded to 96-well cell culture plate with density at 5000 cells/well;
a) Compounds prepared at step 2 were added to cell plate with 40 μL per well, the final concentrations were 10000, 3333,1111.1, 370.4, 123.5, 41.2, 13.7, 4.6, 1.5 and 0 nM, and the final concentration of DMSO was 0.5%. The blank control well was a culture medium (0.5% DMSO);
as §12
a) Remove the 96-well cell culture plate and add 60 μl of CTG reagent (CellTiter Glo kit, promega, Cat # G7573).
as §14
c) The Luminescence signal value was read using a PerkinElmer reader.
Experimental Data Analysis
as §16, §17
Y=Bottom+(Top-Bottom)/(1+10((LogIC50-X)×HillSlope));
as §19
The cells proliferation assay results are expressed with IC50, shown as Table 3.

Counter-ions that a name gives are not always drawn. Like-named read-outs stand apart in the source and are kept apart here.

EGFR L858R/T790M/C797S, sequence (P00533 25-1210 T790M/C797S/L858R): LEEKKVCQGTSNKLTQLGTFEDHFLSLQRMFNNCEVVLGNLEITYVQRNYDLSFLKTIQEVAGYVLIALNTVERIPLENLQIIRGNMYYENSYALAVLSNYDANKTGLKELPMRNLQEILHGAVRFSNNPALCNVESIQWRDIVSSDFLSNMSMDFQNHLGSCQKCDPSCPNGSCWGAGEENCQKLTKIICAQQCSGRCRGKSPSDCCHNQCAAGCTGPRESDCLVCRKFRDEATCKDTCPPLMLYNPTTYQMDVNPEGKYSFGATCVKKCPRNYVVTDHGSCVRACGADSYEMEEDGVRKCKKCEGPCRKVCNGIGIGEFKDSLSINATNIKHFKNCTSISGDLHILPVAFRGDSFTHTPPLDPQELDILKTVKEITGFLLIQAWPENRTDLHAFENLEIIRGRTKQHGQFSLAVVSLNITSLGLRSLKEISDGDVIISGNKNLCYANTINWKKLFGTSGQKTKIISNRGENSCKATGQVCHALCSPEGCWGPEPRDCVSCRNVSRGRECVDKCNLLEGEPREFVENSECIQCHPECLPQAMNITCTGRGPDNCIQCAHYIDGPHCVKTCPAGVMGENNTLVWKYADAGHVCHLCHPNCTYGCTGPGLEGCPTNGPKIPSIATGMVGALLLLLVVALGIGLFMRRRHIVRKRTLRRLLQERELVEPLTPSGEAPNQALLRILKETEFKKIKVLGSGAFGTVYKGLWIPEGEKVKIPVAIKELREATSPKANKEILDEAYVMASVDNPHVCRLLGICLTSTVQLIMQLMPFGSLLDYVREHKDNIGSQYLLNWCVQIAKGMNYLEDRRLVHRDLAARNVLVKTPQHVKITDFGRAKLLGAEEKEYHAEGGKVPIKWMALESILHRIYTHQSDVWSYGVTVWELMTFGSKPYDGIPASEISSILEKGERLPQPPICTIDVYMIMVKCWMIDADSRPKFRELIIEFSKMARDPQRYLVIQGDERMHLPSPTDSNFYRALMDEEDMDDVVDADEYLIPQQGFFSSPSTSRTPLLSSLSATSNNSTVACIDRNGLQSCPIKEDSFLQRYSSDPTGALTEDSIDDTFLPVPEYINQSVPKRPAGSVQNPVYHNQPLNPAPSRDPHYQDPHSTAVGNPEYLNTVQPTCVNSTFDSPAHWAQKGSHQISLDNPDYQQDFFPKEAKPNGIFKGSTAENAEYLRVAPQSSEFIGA
Ba/F3-Del19/T790M/C797S, sequence (P00533 with tags, fused parts or gaps DEL746-750/T790M/C797S, form open): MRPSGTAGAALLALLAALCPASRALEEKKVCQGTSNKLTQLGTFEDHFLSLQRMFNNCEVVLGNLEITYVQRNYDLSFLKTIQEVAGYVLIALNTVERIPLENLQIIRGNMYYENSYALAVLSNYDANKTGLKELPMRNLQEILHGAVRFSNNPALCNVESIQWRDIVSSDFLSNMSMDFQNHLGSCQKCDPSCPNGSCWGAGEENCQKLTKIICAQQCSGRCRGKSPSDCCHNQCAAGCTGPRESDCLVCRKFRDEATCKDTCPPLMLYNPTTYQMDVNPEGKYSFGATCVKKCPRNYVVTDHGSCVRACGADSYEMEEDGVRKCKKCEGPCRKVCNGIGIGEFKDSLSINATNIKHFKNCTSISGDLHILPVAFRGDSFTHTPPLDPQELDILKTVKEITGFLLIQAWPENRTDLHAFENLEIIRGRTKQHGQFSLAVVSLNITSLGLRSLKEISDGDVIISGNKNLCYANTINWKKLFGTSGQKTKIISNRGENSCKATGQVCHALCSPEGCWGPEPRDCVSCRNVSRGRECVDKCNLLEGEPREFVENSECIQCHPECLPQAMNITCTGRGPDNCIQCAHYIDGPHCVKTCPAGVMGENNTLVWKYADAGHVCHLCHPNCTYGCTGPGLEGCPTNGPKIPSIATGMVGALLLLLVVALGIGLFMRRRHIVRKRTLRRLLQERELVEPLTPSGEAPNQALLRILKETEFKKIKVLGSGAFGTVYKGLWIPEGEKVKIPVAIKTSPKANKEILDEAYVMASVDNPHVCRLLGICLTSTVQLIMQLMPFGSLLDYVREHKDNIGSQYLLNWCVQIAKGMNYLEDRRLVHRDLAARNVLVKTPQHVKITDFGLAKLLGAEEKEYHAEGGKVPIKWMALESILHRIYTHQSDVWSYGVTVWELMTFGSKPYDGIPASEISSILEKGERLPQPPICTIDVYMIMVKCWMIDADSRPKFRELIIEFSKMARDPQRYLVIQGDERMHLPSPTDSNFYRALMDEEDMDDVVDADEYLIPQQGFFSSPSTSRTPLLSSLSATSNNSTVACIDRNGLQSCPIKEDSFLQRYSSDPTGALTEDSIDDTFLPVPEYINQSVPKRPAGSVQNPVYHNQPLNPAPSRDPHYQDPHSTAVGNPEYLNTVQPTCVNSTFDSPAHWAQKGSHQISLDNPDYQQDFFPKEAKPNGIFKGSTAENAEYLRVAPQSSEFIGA
Ba/F3-L858R/T790M/C797S, sequence (P00533 whole entry T790M/C797S/L858R): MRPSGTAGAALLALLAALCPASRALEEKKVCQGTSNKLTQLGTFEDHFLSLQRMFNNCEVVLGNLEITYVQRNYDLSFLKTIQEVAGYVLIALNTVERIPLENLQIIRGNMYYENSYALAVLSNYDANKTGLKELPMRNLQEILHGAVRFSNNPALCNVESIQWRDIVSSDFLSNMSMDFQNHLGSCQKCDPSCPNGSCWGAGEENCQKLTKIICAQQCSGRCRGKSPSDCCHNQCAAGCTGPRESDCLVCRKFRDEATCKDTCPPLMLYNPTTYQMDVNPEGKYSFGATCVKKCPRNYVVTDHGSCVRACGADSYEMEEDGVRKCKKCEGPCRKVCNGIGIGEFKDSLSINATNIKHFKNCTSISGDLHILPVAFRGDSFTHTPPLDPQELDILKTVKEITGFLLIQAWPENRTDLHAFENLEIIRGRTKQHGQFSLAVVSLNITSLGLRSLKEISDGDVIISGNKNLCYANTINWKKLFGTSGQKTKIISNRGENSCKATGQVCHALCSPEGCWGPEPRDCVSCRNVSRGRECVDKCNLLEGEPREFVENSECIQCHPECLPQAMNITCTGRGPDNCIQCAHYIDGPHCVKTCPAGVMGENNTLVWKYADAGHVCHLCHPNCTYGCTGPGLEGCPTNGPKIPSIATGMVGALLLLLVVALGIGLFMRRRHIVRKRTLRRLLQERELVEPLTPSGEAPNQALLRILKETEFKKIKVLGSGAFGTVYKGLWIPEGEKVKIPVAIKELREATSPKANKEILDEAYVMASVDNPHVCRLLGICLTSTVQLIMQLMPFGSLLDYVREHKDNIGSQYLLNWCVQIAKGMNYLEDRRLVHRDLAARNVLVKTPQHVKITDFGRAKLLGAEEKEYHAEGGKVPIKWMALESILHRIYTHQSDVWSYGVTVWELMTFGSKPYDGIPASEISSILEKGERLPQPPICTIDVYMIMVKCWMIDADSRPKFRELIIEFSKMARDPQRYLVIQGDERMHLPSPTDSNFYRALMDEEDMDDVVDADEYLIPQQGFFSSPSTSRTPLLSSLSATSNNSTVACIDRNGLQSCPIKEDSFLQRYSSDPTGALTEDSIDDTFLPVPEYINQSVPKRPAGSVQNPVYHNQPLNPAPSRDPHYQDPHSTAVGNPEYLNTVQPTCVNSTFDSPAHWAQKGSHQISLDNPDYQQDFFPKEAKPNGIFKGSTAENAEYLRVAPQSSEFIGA

On to `CCN1CC2(C1)CN(c1ccc(Nc3ncc(Cl)c(Nc4ccccc4P(C)(C)=O)n3)cc1C)C2` [Comparative compound B, (2-((5-chloro-2-((4-(6-ethyl-2,6-diazaspiro[3.3]heptan-2-yl)-3-methylphenyl)amino)pyrimidin-4-yl)amino)phenyl)dimethylphosphine oxide, reference compound], for which, in data set [1], the AUC(0-t) was 202 ng·h/mL, the Cmax is 67.2 ng/mL, the Tmax was found to be 2.75 h and the half-life is 4.09 h.
With `Cc1cc(Nc2ncc(Cl)c(Nc3ccccc3P(C)(C)=O)n2)ccc1N1CC2(CCC(N)CC2)C1` [Example 3, (2-((2-((4-(7-amino-2-azaspiro[3.5]nonan-2-yl)-3-methylphenyl)amino)-5-chloropyrimidin-4-yl)amino)phenyl)dimethylphosphine oxide], the GI50 on Ba/F3-L858R/T790M/C797S (class symbols) and at Ba/F3-Del19/T790M/C797S (class symbols) was 10 to 50 nM throughout. Further, at EGFR L858R/T790M/C797S, the IC50 stood at 2.8 nM.
Consider `CN(C)C1CCC2(CC1)CN(c1ccc(Nc3ncc(Cl)c(Nc4ccccc4P(C)(C)=O)n3)cc1C1CC1)C2` [Example 5, (2-((5-chloro-2-((3-cyclopropyl-4-(7-(dimethylamino)-2-azaspiro[3.5]nonan-2-yl)phenyl)amino)pyrimidin-4-yl)amino)phenyl)dimethylphosphine oxide], for which the GI50 on Ba/F3-L858R/T790M/C797S (class symbols) and at Ba/F3-Del19/T790M/C797S (class symbols) was 10 to 50 nM each time. Moreover, the IC50 on EGFR L858R/T790M/C797S worked out at 1.5 nM.
Consider `CN(C)C1CC2(CCN(c3ccc(Nc4nccc(Nc5ccccc5P(C)(C)=O)n4)cc3Cl)CC2)C1` [Example 7, (2-((2-((3-chloro-4-(2-(dimethylamino)-7-azaspiro[3.5]nonan-7-yl)phenyl)amino)pyrimidin-4-yl)amino)phenyl)dimethylphosphine oxide], for which the GI50 on Ba/F3-L858R/T790M/C797S (class symbols) and at Ba/F3-Del19/T790M/C797S (class symbols) was greater than 50 nM in each case. The IC50 came out at 7.8 nM on EGFR L858R/T790M/C797S and 341 nM in the data set on A431 (WT).
For `CP(C)(=O)c1ccccc1Nc1ccnc(Nc2ccc(N3CCC4(CC3)CC(N)C4)c(Cl)c2)n1` [Example 9, (2-((2-((4-(2-amino-7-azaspiro[3.5]nonan-7-yl)-3-chlorophenyl)amino)pyrimidin-4-yl)amino)phenyl)dimethylphosphine oxide], the GI50 at Ba/F3-L858R/T790M/C797S (class symbols) and on Ba/F3-Del19/T790M/C797S (class symbols) was greater than 50 nM throughout. The half-inhibitory concentration (IC50) at EGFR L858R/T790M/C797S is 11 nM.
As for `CP(C)(=O)c1ccccc1Nc1nc(Nc2ccc(N3CC4(CCC(N)CC4)C3)c(Cl)c2)ncc1Cl` [Example 11, (2-((2-((4-(7-amino-2-azaspiro[3.5]nonan-2-yl)-3-chlorophenyl)amino)-5-chloropyrimidin-4-yl)amino)phenyl)dimethylphosphine oxide], the GI50 at Ba/F3-L858R/T790M/C797S (class symbols) is 10 to 50 nM; at Ba/F3-Del19/T790M/C797S (numeric values), 26.3 nM. Moreover, the IC50 at EGFR L858R/T790M/C797S was found to be 2.6 nM.
As to `CP(C)(=O)c1ccccc1Nc1nc(Nc2ccc(N3CCC4(CC3)CC(N)C4)cc2)ncc1Cl` [Example 16, (2-((2-((4-(2-amino-7-azaspiro[3.5]nonan-7-yl)phenyl)amino)-5-chloropyrimidin-4-yl)amino)phenyl)dimethylphosphine oxide hydrochloride], the results for the GI50 at Ba/F3-L858R/T790M/C797S (numeric values) and on Ba/F3-Del19/T790M/C797S (numeric values) were 6.9 nM and 8 nM, respectively.
For `CP(C)(=O)c1ccccc1Nc1nc(Nc2ccc(N3CCC4(CC3)CC(N)C4)c(C(F)(F)F)c2)ncc1Cl` [Example 18, (2-((2-((4-(2-amino-7-azaspiro[3.5]nonan-7-yl)-3-(trifluoromethyl)phenyl)amino)-5-chloropyrimidin-4-yl)amino)phenyl)dimethylphosphine oxide], the GI50 at Ba/F3-L858R/T790M/C797S (class symbols) and at Ba/F3-Del19/T790M/C797S (class symbols) was 10 to 50 nM in each case. On EGFR L858R/T790M/C797S, the IC50 was 16 nM.
On to `CNC1CC2(CCN(c3ccc(Nc4ncc(Cl)c(Nc5ccccc5P(C)(C)=O)n4)cc3Cl)CC2)C1` [Example 20, (2-((5-chloro-2-((3-chloro-4-(2-(methylamino)-7-azaspiro[3.5]nonan-7-yl)phenyl)amino)pyrimidin-4-yl)amino)phenyl)dimethylphosphine oxide], for which the GI50 at Ba/F3-L858R/T790M/C797S (class symbols) and on Ba/F3-Del19/T790M/C797S (class symbols) was 10 to 50 nM throughout. Besides, at EGFR L858R/T790M/C797S, the IC50 was determined as 2.3 nM.
Turning to `CN(C)C1CC2(CCN(c3ccc(Nc4ncc(Cl)c(Nc5ccccc5P(C)(C)=O)n4)cc3F)CC2)C1` [Example 30, (2-((5-chloro-2-((4-(2-(dimethylamino)-7-azaspiro[3.5]nonan-7-yl)-3-fluorophenyl)amino)pyrimidin-4-yl)amino)phenyl)dimethylphosphine oxide], the results for the GI50 at Ba/F3-L858R/T790M/C797S (class symbols) and on Ba/F3-Del19/T790M/C797S (class symbols) were 10 to 50 nM and no more than 10 nM, respectively. In addition, the IC50 is 1.1 nM on EGFR L858R/T790M/C797S and 30 nM with A431 (WT).

As usually defined, the AUC(0-t) is the area under the concentration-time curve up to a stated or last time point. High values mean more exposure, low ones less exposure. Usually Cmax stands for the peak of the concentration-time curve. As usually defined, the Tmax is the time from dosing to the highest level. As usually defined, the half-life is the time needed for the level to fall by half in the phase considered. A low value points to fast loss. As a reminder, the IC50 is the concentration needed to halve the response being measured.
